Source: the supplement of paper PMC10307832

Experiments:
Test in all cases: relative viability (nuclei count vs DMSO), 5 days (fraction); higher = more cells survive
BEN = system: BEN
How it was run: (§1)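 Lung cancer cell lines were seeded in 1536-well plates and dosed by pin tool the next day, with either a single drug or a fixed anchor-drug dose combined with five library-drug doses (not always all listed) spaced in √10 steps. Five days later, one step fixed the cells and stained their nuclei (final 0.05% Triton X-100, 1% formaldehyde, 1 ug/ml Hoechst), and nuclei were counted on 4× images. Relative viability is the nuclei count in treated wells divided by the count in vehicle wells, and each value is the median of duplicate plates.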

ChaGo-K-1 = system: ChaGo-K-1
How it was run: as §1

HCC-78 = system: HCC-78
How it was run: as §1

LC-2-ad = system: LC-2-ad
How it was run: as §1

LCLC-97TM1 = system: LCLC-97TM1
How it was run: as §1

LK-2 = system: LK-2
How it was run: as §1

LU99A = system: LU99A
How it was run: as §1

LXF-289 = system: LXF-289
How it was run: as §1

NCI-H1355 = system: NCI-H1355
How it was run: as §1

NCI-H1651 = system: NCI-H1651
How it was run: as §1

NCI-H1666 = system: NCI-H1666
How it was run: as §1

NCI-H1944 = system: NCI-H1944
How it was run: as §1

NCI-H1975 = system: NCI-H1975
How it was run: as §1

NCI-H2087 = system: NCI-H2087
How it was run: as §1

NCI-H2342 = system: NCI-H2342
How it was run: as §1

NCI-H358 = system: NCI-H358
How it was run: as §1

NCI-H596 = system: NCI-H596
How it was run: as §1

NCI-H650 = system: NCI-H650
How it was run: as §1

NCI-H661 = system: NCI-H661
How it was run: as §1

NCI-H838 = system: NCI-H838
How it was run: as §1

PC-3 [JPC-3] = system: PC-3 [JPC-3]
How it was run: as §1

SK-MES-1 = system: SK-MES-1
How it was run: as §1

O=c1cc(-c2cccc3c2Sc2ccccc2S3)oc(N2CCOCC2)c1 + O=C(CCCCCCC(=O)Nc1ccccc1)NO [Vorinostat] (partner 1 µM)
relative viability (BEN; first compound 0.08 µM): 0.521 | relative viability (BEN; first compound 0.253 µM): 0.645 | relative viability (BEN; first compound 0.8 µM): 0.594 | relative viability (BEN; first compound 2.53 µM): 0.59 | relative viability (BEN; first compound 8 µM): 0.629 | relative viability (ChaGo-K-1; first compound 0.08 µM): 0.765 | relative viability (ChaGo-K-1; first compound 0.253 µM): 0.859 | relative viability (ChaGo-K-1; first compound 0.8 µM): 0.876 | relative viability (ChaGo-K-1; first compound 2.53 µM): 0.753 | relative viability (ChaGo-K-1; first compound 8 µM): 0.847 | relative viability (HCC-78; first compound 0.08 µM): 0.478 | relative viability (HCC-78; first compound 0.253 µM): 0.529 | relative viability (HCC-78; first compound 0.8 µM): 0.376 | relative viability (HCC-78; first compound 2.53 µM): 0.39 | relative viability (HCC-78; first compound 8 µM): 0.474 | relative viability (LC-2-ad; first compound 0.08 µM): 0.683 | relative viability (LC-2-ad; first compound 0.253 µM): 0.835 | relative viability (LC-2-ad; first compound 0.8 µM): 0.684 | relative viability (LC-2-ad; first compound 2.53 µM): 0.695 | relative viability (LC-2-ad; first compound 8 µM): 0.69 | relative viability (LCLC-97TM1; first compound 0.08 µM): 0.638 | relative viability (LCLC-97TM1; first compound 0.253 µM): 0.927 | relative viability (LCLC-97TM1; first compound 0.8 µM): 0.803 | relative viability (LCLC-97TM1; first compound 2.53 µM): 0.602 | relative viability (LCLC-97TM1; first compound 8 µM): 1.06 | relative viability (LK-2; first compound 0.08 µM): 0.261 | relative viability (LK-2; first compound 0.253 µM): 0.327 | relative viability (LK-2; first compound 0.8 µM): 0.369 | relative viability (LK-2; first compound 2.53 µM): 0.287 | relative viability (LK-2; first compound 8 µM): 0.358 | relative viability (LU99A; first compound 0.08 µM): 0.429 | relative viability (LU99A; first compound 0.253 µM): 0.499 | relative viability (LU99A; first compound 0.8 µM): 0.639 | relative viability (LU99A; first compound 2.53 µM): 0.514 | relative viability (LU99A; first compound 8 µM): 0.669 | relative viability (LXF-289; first compound 0.08 µM): 0.902 | relative viability (LXF-289; first compound 0.253 µM): 0.784 | relative viability (LXF-289; first compound 0.8 µM): 0.782 | relative viability (LXF-289; first compound 2.53 µM): 0.661 | relative viability (LXF-289; first compound 8 µM): 0.819 | relative viability (NCI-H1355; first compound 0.08 µM): 0.628 | relative viability (NCI-H1355; first compound 0.253 µM): 0.709 | relative viability (NCI-H1355; first compound 0.8 µM): 0.526 | relative viability (NCI-H1355; first compound 2.53 µM): 0.654 | relative viability (NCI-H1355; first compound 8 µM): 0.584 | relative viability (NCI-H1651; first compound 0.08 µM): 0.585 | relative viability (NCI-H1651; first compound 0.253 µM): 0.638 | relative viability (NCI-H1651; first compound 0.8 µM): 0.571 | relative viability (NCI-H1651; first compound 2.53 µM): 0.519 | relative viability (NCI-H1651; first compound 8 µM): 0.578 | relative viability (NCI-H1666; first compound 0.08 µM): 1 | relative viability (NCI-H1666; first compound 0.253 µM): 1.15 | relative viability (NCI-H1666; first compound 0.8 µM): 0.963 | relative viability (NCI-H1666; first compound 2.53 µM): 1.02 | relative viability (NCI-H1666; first compound 8 µM): 1.06 | relative viability (NCI-H1944; first compound 0.08 µM): 0.58 | relative viability (NCI-H1944; first compound 0.253 µM): 0.586 | relative viability (NCI-H1944; first compound 0.8 µM): 0.513 | relative viability (NCI-H1944; first compound 2.53 µM): 0.544 | relative viability (NCI-H1944; first compound 8 µM): 0.596 | relative viability (NCI-H1975; first compound 0.08 µM): 0.687 | relative viability (NCI-H1975; first compound 0.253 µM): 0.827 | relative viability (NCI-H1975; first compound 0.8 µM): 0.707 | relative viability (NCI-H1975; first compound 2.53 µM): 0.671 | relative viability (NCI-H1975; first compound 8 µM): 0.749 | relative viability (NCI-H2087; first compound 0.08 µM): 0.862 | relative viability (NCI-H2087; first compound 0.253 µM): 0.757 | relative viability (NCI-H2087; first compound 0.8 µM): 1.09 | relative viability (NCI-H2087; first compound 2.53 µM): 0.727 | relative viability (NCI-H2087; first compound 8 µM): 0.917 | relative viability (NCI-H2342; first compound 0.08 µM): 0.752 | relative viability (NCI-H2342; first compound 0.253 µM): 0.831 | relative viability (NCI-H2342; first compound 0.8 µM): 0.8 | relative viability (NCI-H2342; first compound 2.53 µM): 0.691 | relative viability (NCI-H2342; first compound 8 µM): 0.699 | relative viability (NCI-H358; first compound 0.08 µM): 0.725 | relative viability (NCI-H358; first compound 0.253 µM): 0.651 | relative viability (NCI-H358; first compound 0.8 µM): 0.705 | relative viability (NCI-H358; first compound 2.53 µM): 0.71 | relative viability (NCI-H358; first compound 8 µM): 0.632 | relative viability (NCI-H596; first compound 0.08 µM): 0.51 | relative viability (NCI-H596; first compound 0.253 µM): 0.749 | relative viability (NCI-H596; first compound 0.8 µM): 0.585 | relative viability (NCI-H596; first compound 2.53 µM): 0.575 | relative viability (NCI-H596; first compound 8 µM): 0.717 | relative viability (NCI-H650; first compound 0.08 µM): 0.473 | relative viability (NCI-H650; first compound 0.253 µM): 0.478 | relative viability (NCI-H650; first compound 0.8 µM): 0.393 | relative viability (NCI-H650; first compound 2.53 µM): 0.345 | relative viability (NCI-H650; first compound 8 µM): 0.458 | relative viability (NCI-H661; first compound 0.08 µM): 0.801 | relative viability (NCI-H661; first compound 0.253 µM): 0.808 | relative viability (NCI-H661; first compound 0.8 µM): 0.807 | relative viability (NCI-H661; first compound 2.53 µM): 0.734 | relative viability (NCI-H661; first compound 8 µM): 0.789 | relative viability (NCI-H838; first compound 0.08 µM): 0.746 | relative viability (NCI-H838; first compound 0.253 µM): 0.739 | relative viability (NCI-H838; first compound 0.8 µM): 0.831 | relative viability (NCI-H838; first compound 2.53 µM): 0.636 | relative viability (NCI-H838; first compound 8 µM): 0.535 | relative viability (PC-3 [JPC-3]; first compound 0.08 µM): 0.579 | relative viability (PC-3 [JPC-3]; first compound 0.253 µM): 0.788 | relative viability (PC-3 [JPC-3]; first compound 0.8 µM): 0.769 | relative viability (PC-3 [JPC-3]; first compound 2.53 µM): 0.79 | relative viability (PC-3 [JPC-3]; first compound 8 µM): 0.851 | relative viability (SK-MES-1; first compound 0.08 µM): 1.15 | relative viability (SK-MES-1; first compound 0.253 µM): 1.23 | relative viability (SK-MES-1; first compound 0.8 µM): 1.01 | relative viability (SK-MES-1; first compound 2.53 µM): 0.975 | relative viability (SK-MES-1; first compound 8 µM): 0.939
